Results taken from patent publication US20240277698A1, “METHODS OF USING ALDOSTERONE SYNTHASE INHIBITORS” (CINCOR PHARMA, INC., priority 2021, published 2024).

Molecular target: T1, aldosterone synthase (Homo sapiens, UniProt P19099)
T1 construct: synthesized in the adrenal cortex by aldosterone synthase; endogenous in cells; host or cells: adrenal cortex of healthy human subjects (in vivo, oral dosing)
T1 sequence (P19099 25-503): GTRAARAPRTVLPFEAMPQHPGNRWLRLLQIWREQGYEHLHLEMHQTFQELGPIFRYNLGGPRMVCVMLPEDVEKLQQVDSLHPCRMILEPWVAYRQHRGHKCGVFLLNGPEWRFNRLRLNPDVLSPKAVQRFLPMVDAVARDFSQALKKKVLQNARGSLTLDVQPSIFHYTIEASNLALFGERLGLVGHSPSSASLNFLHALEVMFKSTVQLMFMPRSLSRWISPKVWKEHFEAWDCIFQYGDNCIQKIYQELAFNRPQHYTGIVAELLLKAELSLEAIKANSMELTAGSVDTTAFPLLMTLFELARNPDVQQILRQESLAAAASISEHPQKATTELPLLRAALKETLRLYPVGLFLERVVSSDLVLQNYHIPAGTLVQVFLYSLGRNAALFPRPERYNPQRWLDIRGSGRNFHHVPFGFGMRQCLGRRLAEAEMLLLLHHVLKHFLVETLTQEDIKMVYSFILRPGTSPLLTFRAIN
Experiment: MAD study: plasma aldosterone and precursors (18-hydroxycorticosterone, corticosterone, 11-deoxycorticosterone)
Assay type: in vivo
Conditions: mean; for Plasma 11-deoxycorticosterone, Day −1 predose / Plasma 18-hydroxycorticosterone, Day −1 predose / Plasma aldosterone, Day −1 predose / Plasma corticosterone, Day −1 predose: baseline
Description: For each subject, the study consisted of: • A screening period of up to 28 days; • A 5-day inpatient run-in period during which subjects adhered to a controlled, standardized diet and underwent baseline PD assessments; • A 15-day inpatient treatment period, during which subjects received (R)-compound 1 or placebo once daily for 10 days while adhering to a controlled, standardized diet, followed by PK and PD sampling over an additional 5 days; and • A follow-up visit 3 days (1 day) after discharge from the clinical unit. • A cortisol stimulation test (Cohorts 1 and 2 only) and standing aldosterone assessment (all cohorts) were performed on Days 1 and 10. Serial blood samples for PK and PD were obtained prior to and at specified time points over 24 hours after dosing on Day 1 as well as prior to and at specified time points over 120 hours after dosing on Day 10. In addition, blood samples for PK were collected prior to dosing on Days 8 and 9. Urine for PK and PD measurements was collected over 24 hours starting just prior to dosing on Day 1 as well as over 120 hours starting just prior to dosing on Day 10. […]

Compound: CCC(=O)N[C@@H]1CCCc2c(-c3ccc4c(c3)CCC(=O)N4C)cncc21 [(R)-Compound 1, (R)—N-(4-(1-methyl-2-oxo-1,2,3,4-tetrahydroquinolin-6-yl)-5,6,7,8-tetrahydroisoquinolin-8-yl)propionamide]
- Plasma 11-deoxycorticosterone, Day −1 predose (0.5 mg QD, normal salt diet): 52.625 pg/mL
- Plasma 18-hydroxycorticosterone, Day −1 predose (0.5 mg QD, normal salt diet): 955.5 pg/mL
- Plasma aldosterone, Day −1 predose (0.5 mg QD, normal salt diet): 131.588 pg/mL
- Plasma corticosterone, Day −1 predose (0.5 mg QD, normal salt diet): 4302.5 pg/mL
- Plasma 11-deoxycorticosterone, Day 1, 12 hours postdose (0.5 mg QD, normal salt diet): 35.900 pg/mL
- Plasma 11-deoxycorticosterone, Day 1, predose (0.5 mg QD, normal salt diet): 50.938 pg/mL
- Plasma 11-deoxycorticosterone, Day 2, predose (0.5 mg QD, normal salt diet): 72.950 pg/mL
- Plasma 11-deoxycorticosterone, Day 10, 12 hours postdose (0.5 mg QD, normal salt diet): 70.813 pg/mL
- Plasma 11-deoxycorticosterone, Day 10, 24 hours postdose (0.5 mg QD, normal salt diet): 115.663 pg/mL
- Plasma 11-deoxycorticosterone, Day 10, predose (0.5 mg QD, normal salt diet): 112.375 pg/mL
- Plasma 11-deoxycorticosterone, Percent change from Day −1 to Day 10, predose (0.5 mg QD, normal salt diet): 161.115%
- Plasma 18-hydroxycorticosterone, Day 1, 12 hours postdose (0.5 mg QD, normal salt diet): 310.1 pg/mL
- Plasma 18-hydroxycorticosterone, Day 1, predose (0.5 mg QD, normal salt diet): 943.1 pg/mL
- Plasma 18-hydroxycorticosterone, Day 2, predose (0.5 mg QD, normal salt diet): 819.6 pg/mL
- Plasma 18-hydroxycorticosterone, Day 10, 12 hours postdose (0.5 mg QD, normal salt diet): 326.5 pg/mL
- Plasma 18-hydroxycorticosterone, Day 10, 24 hours postdose (0.5 mg QD, normal salt diet): 1016.4 pg/mL
- Plasma 18-hydroxycorticosterone, Day 10, predose (0.5 mg QD, normal salt diet): 983.1 pg/mL
- Plasma 18-hydroxycorticosterone, Percent change from Day −1 to Day 10 (0.5 mg QD, normal salt diet): 5.2%
- Plasma aldosterone, Day 1, 12 hours postdose (0.5 mg QD, normal salt diet): 56.250 pg/mL
- Plasma aldosterone, Day 1, predose (0.5 mg QD, normal salt diet): 133.013 pg/mL
- Plasma aldosterone, Day 2, predose (0.5 mg QD, normal salt diet): 80.100 pg/mL
- Plasma aldosterone, Day 10, 12 hours postdose (0.5 mg QD, normal salt diet): 83.625 pg/mL
- Plasma aldosterone, Day 10, 24 hours postdose (0.5 mg QD, normal salt diet): 143.338 pg/mL
- Plasma aldosterone, Day 10, predose (0.5 mg QD, normal salt diet): 152.875 pg/mL
- Plasma aldosterone, Percent change from Day −1 to Day 10, predose (0.5 mg QD, normal salt diet): 28.841%
- Plasma corticosterone, Day 1, 12 hours postdose (0.5 mg QD, normal salt diet): 695.6 pg/mL
- Plasma corticosterone, Day 1, predose (0.5 mg QD, normal salt diet): 3170.0 pg/mL
- Plasma corticosterone, Day 2, predose (0.5 mg QD, normal salt diet): 4490.0 pg/mL
- Plasma corticosterone, Day 10, 12 hours postdose (0.5 mg QD, normal salt diet): 1211.4 pg/mL
- Plasma corticosterone, Day 10, 24 hours postdose (0.5 mg QD, normal salt diet): 5923.8 pg/mL
- Plasma corticosterone, Day 10, predose (0.5 mg QD, normal salt diet): 4187.5 pg/mL
- Plasma corticosterone, Percent change from Day −1 to Day 10, predose (0.5 mg QD, normal salt diet): 73.0%
- Plasma 11-deoxycorticosterone, Day −1 predose (1.5 mg QD, normal salt diet): 43.489 pg/mL
- Plasma 18-hydroxycorticosterone, Day −1 predose (1.5 mg QD, normal salt diet): 1027.4 pg/mL
- Plasma aldosterone, Day −1 predose (1.5 mg QD, normal salt diet): 143.100 pg/mL
- Plasma corticosterone, Day −1 predose (1.5 mg QD, normal salt diet): 3748.3 pg/mL
- Plasma 11-deoxycorticosterone, Day 1, 12 hours postdose (1.5 mg QD, normal salt diet): 19.656 pg/mL
- Plasma 11-deoxycorticosterone, Day 1, predose (1.5 mg QD, normal salt diet): 44.711 pg/mL
- Plasma 11-deoxycorticosterone, Day 2, predose (1.5 mg QD, normal salt diet): 53.344 pg/mL
- Plasma 11-deoxycorticosterone, Day 10, 12 hours postdose (1.5 mg QD, normal salt diet): 46.733 pg/mL
- Plasma 11-deoxycorticosterone, Day 10, 24 hours postdose (1.5 mg QD, normal salt diet): 84.767 pg/mL
- Plasma 11-deoxycorticosterone, Day 10, predose (1.5 mg QD, normal salt diet): 73.322 pg/mL
- Plasma 11-deoxycorticosterone, Percent change from Day −1 to Day 10, predose (1.5 mg QD, normal salt diet): 104.945%
- Plasma 18-hydroxycorticosterone, Day 1, 12 hours postdose (1.5 mg QD, normal salt diet): 225.6 pg/mL
- Plasma 18-hydroxycorticosterone, Day 1, predose (1.5 mg QD, normal salt diet): 991.7 pg/mL
- Plasma 18-hydroxycorticosterone, Day 2, predose (1.5 mg QD, normal salt diet): 829.3 pg/mL
- Plasma 18-hydroxycorticosterone, Day 10, 12 hours postdose (1.5 mg QD, normal salt diet): 318.4 pg/mL
- Plasma 18-hydroxycorticosterone, Day 10, 24 hours postdose (1.5 mg QD, normal salt diet): 1000.1 pg/mL
- Plasma 18-hydroxycorticosterone, Day 10, predose (1.5 mg QD, normal salt diet): 1047.9 pg/mL
- Plasma 18-hydroxycorticosterone, Percent change from Day −1 to Day 10 (1.5 mg QD, normal salt diet): 6.1%
- Plasma aldosterone, Day 1, 12 hours postdose (1.5 mg QD, normal salt diet): 27.111 pg/mL
- Plasma aldosterone, Day 1, predose (1.5 mg QD, normal salt diet): 110.567 pg/mL
- Plasma aldosterone, Day 2, predose (1.5 mg QD, normal salt diet): 52.933 pg/mL
- Plasma aldosterone, Day 10, 12 hours postdose (1.5 mg QD, normal salt diet): 41.300 pg/mL
- Plasma aldosterone, Day 10, 24 hours postdose (1.5 mg QD, normal salt diet): 92.533 pg/mL
- Plasma aldosterone, Day 10, predose (1.5 mg QD, normal salt diet): 82.144 pg/mL
- Plasma aldosterone, Percent change from Day −1 to Day 10, predose (1.5 mg QD, normal salt diet): −37.405%
- Plasma corticosterone, Day 1, 12 hours postdose (1.5 mg QD, normal salt diet): 635.2 pg/mL
- Plasma corticosterone, Day 1, predose (1.5 mg QD, normal salt diet): 3988.3 pg/mL
- Plasma corticosterone, Day 2, predose (1.5 mg QD, normal salt diet): 4413.3 pg/mL
- Plasma corticosterone, Day 10, 12 hours postdose (1.5 mg QD, normal salt diet): 1417.0 pg/mL
- Plasma corticosterone, Day 10, 24 hours postdose (1.5 mg QD, normal salt diet): 6065.6 pg/mL
- Plasma corticosterone, Day 10, predose (1.5 mg QD, normal salt diet): 5677.8 pg/mL
- Plasma corticosterone, Percent change from Day −1 to Day 10, predose (1.5 mg QD, normal salt diet): 115.1%
- Plasma 11-deoxycorticosterone, Day −1 predose (2.5 mg QD, low salt diet): 72.688 pg/mL
- Plasma 18-hydroxycorticosterone, Day −1 predose (2.5 mg QD, low salt diet): 1269.6 pg/mL
- Plasma aldosterone, Day −1 predose (2.5 mg QD, low salt diet): 272.125 pg/mL
- Plasma corticosterone, Day −1 predose (2.5 mg QD, low salt diet): 6383.8 pg/mL
- Plasma 11-deoxycorticosterone, Day 1, 12 hours postdose (2.5 mg QD, low salt diet): 133.300 pg/mL
- Plasma 11-deoxycorticosterone, Day 1, predose (2.5 mg QD, low salt diet): 83.825 pg/mL
- Plasma 11-deoxycorticosterone, Day 10, 12 hours postdose (2.5 mg QD, low salt diet): 204.250 pg/mL
- Plasma 11-deoxycorticosterone, Day 10, 24 hours postdose (2.5 mg QD, low salt diet): 217.975 pg/mL
- Plasma 11-deoxycorticosterone, Day 10, predose (2.5 mg QD, low salt diet): 164.725 pg/mL
- Plasma 11-deoxycorticosterone, Percent change from Day −1 to Day 10, predose (2.5 mg QD, low salt diet): 412.560%
- Plasma 18-hydroxycorticosterone, Day 1, 12 hours postdose (2.5 mg QD, low salt diet): 230.4 pg/mL
- Plasma 18-hydroxycorticosterone, Day 1, predose (2.5 mg QD, low salt diet): 839.6 pg/mL
- Plasma 18-hydroxycorticosterone, Day 10, 12 hours postdose (2.5 mg QD, low salt diet): 339.1 pg/mL
